Among the data in PubChem BioAssay (NCI) are GI50 and TGI values, retold here.

What all share (assay): NCI anticancer screen, dose series, 48 h
The subject of experiment [1] is OVCAR-4 ovarian.
The test system of experiment [2] is SK-MEL-2 melanoma.
The subject of experiment [3] is SR leukemia.
Experiment [4] relates to OVCAR-5 ovarian.
In experiment [5] the test system is SK-OV-3 ovarian.
Experiment [6] has as its system IGROV1 ovarian.
The test system of experiment [7] is OVCAR-3 ovarian.
Experiment [8] has as its system UACC-257 melanoma.
Experiment [9] deals with SF-539 CNS.
Experiment [10] concerns OVCAR-8 ovarian.

Each structure is given as a SMILES string.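 Compound exposure: 48 hours, 5 concentrations, 96-well plates. GI50: concentration for 50% inhibition of growth. Definition used: TGI = concentration required for complete inhibition of growth.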

As for `COc1ccc(/C=C/c2cc(N3CCOCC3)c3cc(F)c(F)cc3n2)cc1OC`, the GI50 in experiment [1] was 0.253 µM; in experiment [2] it was 2.39 µM; in experiment [3], 0.431 µM; in experiment [4], 2.01 µM; in [5], 1.32 µM; in experiment [6], 0.968 µM. Further, the GI50 in experiment [7] is 0.351 µM; in [8] it was 2.39 µM; in experiment [9] it was 0.913 µM; in [10] it was 0.55 µM. For the same compound, the TGI in experiment [1] was determined as 2.04 µM; in experiment [2], 11.5 µM; in experiment [3], 6.78 µM; in experiment [4], 11.9 µM; in [5] it was 9.17 µM; in experiment [6] it was 9.67 µM. In addition, the TGI in experiment [7] was found to be 2.26 µM; in [8], 9.89 µM; in experiment [9], 4.29 µM; in [10], 3.23 µM.
As to `OC(COc1cccc2ccccc12)CN1CCN(c2ccccc2)CC1` (configuration not stated), the GI50 in [1] is 14.1 µM; in [2] it was 16.2 µM; in experiment [3] it was 16.1 µM; in experiment [4] it was 16.4 µM; in experiment [5], 17 µM; in [6] it was 14.6 µM. Moreover, the GI50 was 15.1 µM in [7], 16 µM in experiment [8], 18.1 µM in [9] and 17.3 µM in [10]. The TGI turned out to be 27.6 µM in [1]; 30.6 µM in experiment [2]; 41.3 µM in experiment [3]; 30.8 µM in experiment [4]; 32.4 µM in experiment [5]; 29.5 µM in experiment [6]. In addition, the TGI is 28.8 µM in experiment [7], 30.1 µM in experiment [8], 33.9 µM in [9] and 32.1 µM in experiment [10].
Take `C#COc1cccc(Nc2ncnc3ncc(NC(=O)CCl)cc23)c1`: the GI50 in experiment [1] was greater than 62.5 µM; in experiment [2] it was greater than 57.7 µM; in [4], greater than 47.4 µM; in experiment [5] it was greater than 62.5 µM; in experiment [7] it was greater than 25 µM; in [8], greater than 62.5 µM. Moreover, the GI50 was greater than 21.8 µM in experiment [9] and greater than 14.5 µM in experiment [10]. Further, the TGI in [1] was greater than 62.5 µM; in experiment [2], greater than 62.5 µM; in experiment [3] it was greater than 62.5 µM; in experiment [4], greater than 62.5 µM; in experiment [5] it was greater than 62.5 µM; in [6], greater than 26.1 µM. Also, the TGI is greater than 62.5 µM in experiment [7], greater than 62.5 µM in experiment [8], greater than 53.2 µM in experiment [9] and greater than 62.5 µM in experiment [10].
In the case of `CC1OC(OC2CC(O)C3(CO)C4C(O)CC5(C)C(C6=CC(=O)OC6)CCC5(O)C4CCC3(O)C2)C(O)C(O)C1O` (configuration not stated), the GI50 in [1] is less than 0.0124 µM; in experiment [2], 0.0187 µM; in experiment [3], 0.0221 µM; in experiment [4] it was 0.0147 µM; in experiment [5], 0.0157 µM; in experiment [6] it was less than 0.0161 µM. The GI50 in experiment [7] is less than 0.013 µM; in experiment [8], 0.0237 µM; in [9], less than 0.0132 µM; in experiment [10] it was less than 0.0199 µM. The TGI in experiment [1] came out at 0.0176 µM; in [2], 0.0754 µM; in experiment [3], 0.0546 µM; in experiment [4] it was 0.0311 µM; in experiment [5], 0.0552 µM; in experiment [6], 0.384 µM. In addition, the TGI is less than 0.0171 µM in experiment [7], 0.105 µM in experiment [8], less than 0.0182 µM in experiment [9] and 0.046 µM in [10].
For the compound `COc1ccc(-c2nn(-c3cccc(NC(=O)Nc4cc(C(F)(F)F)cc(C(F)(F)F)c4)c3)cc2-c2ccncc2)cc1Cl`, the GI50 was 1.1 µM in experiment [1]; 1.23 µM in experiment [2]; 1.02 µM in experiment [3]; 1.4 µM in experiment [4]; 1.52 µM in experiment [5]; 2.08 µM in experiment [6]. In addition, the GI50 is 0.68 µM in [7], 1.07 µM in experiment [8], 0.88 µM in experiment [9] and 1.13 µM in experiment [10]. The TGI in [1] came to 4.86 µM; in [2], 2.8 µM; in experiment [3], 3.13 µM; in [4], 9.17 µM; in [5], 7.38 µM; in [6], 31.6 µM. Also, the TGI came to 4.56 µM in experiment [7], 3.74 µM in [8], 2.25 µM in experiment [9] and 22.5 µM in experiment [10].
`C=C1C(=O)O[C@@H]2C[C@@H]1CC[C@@]1(C)O[C@@H]1CC[C@@]1(C)O[C@@H]1CC[C@@]2(C)O`: the GI50 was 12.3 µM in [1]; 23 µM in experiment [2]; 3.12 µM in [3]; 20.5 µM in experiment [4]; 30.6 µM in [5]; 21.2 µM in experiment [6]. Further, the GI50 in [7] was 15.7 µM; in [8], 43.6 µM; in experiment [9] it was 26.7 µM; in experiment [10] it was 29 µM. Also, the TGI in [1] was 34.3 µM; in experiment [2] it was 75.2 µM; in experiment [3], 16.3 µM; in experiment [4], 56.5 µM; in experiment [5] it was greater than 100 µM; in experiment [6] it was greater than 100 µM. In addition, the TGI in experiment [7] is 37.3 µM; in experiment [8], greater than 100 µM; in experiment [9] it was 75.9 µM; in experiment [10] it was greater than 100 µM.
For the compound `COc1cc([C@@H]2c3cc4c(cc3[C@@H](O[C@@H]3O[C@@H]5CO[C@@H](c6cccs6)O[C@H]5[C@H](O)[C@H]3O)[C@H]3COC(=O)[C@H]23)OCO4)cc(OC)c1O`, the GI50 in experiment [1] was 2.83 µM; in experiment [2] it was 1.33 µM; in [3] it was 0.0101 µM; in [4], 1.56 µM; in experiment [5], 0.456 µM; in experiment [7], 1.42 µM. For the same compound, the GI50 in [8] was 0.796 µM; in experiment [9] it was 0.0972 µM; in experiment [10], 0.34 µM. The TGI came out at 37.4 µM in experiment [1]; 4.84 µM in [2]; 15 µM in experiment [3]; 8.27 µM in [4]; 10.2 µM in experiment [5]; 36.7 µM in experiment [6]. For the same compound, the TGI came out at 5.45 µM in [7], 10.5 µM in [8], 0.432 µM in experiment [9] and 2.51 µM in experiment [10].
Turning to `CC(=O)OC1CCC2(C)C(=CCC3C2CCC2(C)C(C(C)C(=O)O)CCC32)C1` (configuration not stated), the TGI in experiment [1], in [2], in experiment [3], in [4], in [5] and in experiment [6] was greater than 100 µM throughout. Further, the TGI in experiment [7], in experiment [8], in experiment [9] and in experiment [10] was greater than 100 µM throughout.
